Experimental data: patent US4558033A, “Potentiation of the effects of insulin by peptides” (Amgen, priority 1983, dated 1985)
No end group written: not given here.

What was measured:
[1] = system: rats given an intraperitoneal glucose load; test: Plasma glucose in rats given an intraperitoneal glucose load, DP with and without insulin (Example 2); format: in vivo, Sprague-Dawley rats; conditions: for Plasma Glucose at 60 minutes: i.p. glucose load
Procedure: (§1) A study was conducted to determine the effect on plasma glucose of deletion peptide, with and without insulin, in rats given an intraperitoneal glucose load. Groups of five male Sprague-Dawley rats were involved in this study. All weighed between 160 to 168 grams and were maintained on standard laboratory diet until 18 hours prior to the test procedures. Test groups of fasted rats received, in rapid succession, 1.0 ml of 0.75 M glucose, 10 mU of insulin in admixture with 1% bovine serum albumin (BSA) in normal saline (pH 7.4), and either 0, 25, 50 or 100 μg doses of deletion peptide. Control groups of rats received glucose and 1% BSA in saline with no insulin but with similarly varying levels of deletion peptide. Plasma glucose determinations were made on blood drawn one hour after administration of test substances and the results (means, ± standard errors) of these determinations are set out in Table I below.

[2] = system: rats given an intraperitoneal glucose load; test: Plasma glucose in rats given an intraperitoneal glucose load, increasing insulin doses with and without 100 μg DP (Example 3); format: in vivo; conditions: for Plasma Glucose at 60 minutes: i.p. glucose load
Procedure: as §1
A study was conducted under the same general procedures as Example 2 to determine the effect of increasing doses of insulin, with and without 100 μg of deletion peptide, on rats given an intraperitoneal glucose load. The results of plasma glucose determinations on blood drawn after 60 minutes are set out below in Table II.

[3] = system: mice ob/ob, ob/+, db/db, db/m; test: Plasma glucose after glucose load, fixed insulin and DP doses, normal and genetically abnormal mice (Example 4); format: in vivo; conditions: all animals tested in Example 4 (mice and rats)
Procedure: A study was conducted to ascertain the effects of fixed amounts of deletion peptide and insulin on various animal models, including rats and normal and genetically abnormal mice.
Animals in test groups of five each were employed in these procedures. Sprague-Dawley rats weighed approximately 200 grams; homozygous genetically abnormal mice (ob/ob and db/db) had weights in the range of 40 to 60 grams; and heterozygous normal mice (ob/+ and db/m) all weighed approximately 25 grams. Glucose was administered intraperitoneally at a dosage of 0.05 ml/10g of a solution containing 135 mg/ml glucose, except for one group of rats which were given an oral dose of glucose comprising 1 ml of 270 mg/ml glucose solution. Insulin was administered at a dose of 0.001 mU/10g and deletion peptide was simultaneously intraperitoneally administered at a dose of 5.0 μg/10g.
The results of plasma glucose determinations performed on blood drawn one hour after administration of test materials are set out in Table III, below.

Rhesus monkeys = test: Induced hyperglycemia in Rhesus monkeys, plasma glucose over two hours (Example 6); format: in vivo; conditions: at all post-injection times
Procedure: A study was conducted to determine the effects of deletion peptide on induced hyperglycemia in Rhesus monkeys. Blood samples were taken from normal female monkeys (in three experimental groups of three) five minutes before administration of an oral dose of 3.0 ml/kg of 0.5 g/ml glucose and intramuscular administration of either: (1) 0.5 ml/kg phosphate buffered saline (PBS), pH 7.4; (2) deletion peptide 0.1 ml/kg of 1.0 mg/ml solution in PBS; (3) deletion peptide as above combined with 0.5 ml/kg of 20 mU/ml insulin in PBS; or (4) insulin alone as above. Blood samples were then periodically withdrawn over two hours and analyzed for plasma glucose levels. Plasma glucose level data is set out in Table IV.

normal rats [4] = test: In vivo glucose metabolism in normal rats
From the text: (§2) The present invention has its origins, in part, in the results of an extensive series of controlled experiments designed to study the effects of deletion peptide: (a) on in vivo glucose metabolism in normal rats; (b) on in vivo insulin-stimulated glucose uptake by normal rat liver and skeletal muscle tissue; (c) on growth of hypophysectomized rats; and (d) on in vitro glucose utilization of adipocytes isolated from normal rats.

[5] = system: normal rat liver and skeletal muscle tissue; test: In vivo insulin-stimulated glucose uptake by normal rat liver and skeletal muscle tissue; conditions: administration in combination with insulin
From the text: as §2

hypophysectomized rats = test: Growth of hypophysectomized rats; format: in vivo
From the text: as §2

[6] = system: adipocytes isolated from normal rats; test: In vitro glucose utilization of adipocytes isolated from normal rats; format: cell-based
From the text: as §2

[7] = Ongoing studies of deletion peptide biological activities in in vivo systems; conditions: preliminary evidence
From the text: The above examples establish that deletion peptide alone has no immediate and direct hypoglyamic effect within the protocols of investigations conducted to date. […] Further, certain of these effects appear to be shared by peptides disclosed and claimed in co-owned, co-pending, concurrently-filed U.S. Patent application Ser. No. 501,024, by the inventor herein and co-inventor Theodore Jones, entitled "Biologically Active Peptides Structurally Related to Regions Within Growth Hormones," the disclosures of which are incorporated by reference herein.

normal dog = conditions: portal infusion 1 μg/kg/min
Procedure: Two studies were conducted to determine the effects of deletion peptide on dogs.

normal rats [8] = conditions: cited from earlier work
[9] = system: GT-impaired strain of mice (YS/Wf Nctr); conditions: cited from earlier work
[10] = system: insulin-stimulated fat cells of older obese rats; conditions: in vitro; cited from earlier work

EEAYIPKEQKYSFLQ [DP, NH2 -Glu-Glu-Ala-Tyr-Ile-Pro-Lys-Glu-Gln-Lys-Tyr-Ser-Phe-Leu-Gln-COOH]
Plasma Glucose at 60 minutes ([1]; DP 25 μg per rat with 10 mU insulin in 1.0% BSA in saline): 7.5 ± 0.1 mmol/L
Plasma Glucose at 60 minutes ([1]; DP 25 μg per rat, 1.0% BSA in saline, no insulin, fasted rats): 8.1 ± 0.2 mmol/L
Plasma Glucose at 60 minutes ([1]; DP 50 μg per rat with 10 mU insulin in 1.0% BSA in saline): 5.7 ± 0.3 mmol/L
Plasma Glucose at 60 minutes ([1]; DP 50 μg per rat, 1.0% BSA in saline, no insulin, fasted rats): 7.7 ± 0.2 mmol/L
Plasma Glucose at 60 minutes ([1]; DP 100 μg per rat with 10 mU insulin in 1.0% BSA in saline): 3.5 ± 0.1 mmol/L
Plasma Glucose at 60 minutes ([1]; DP 100 μg per rat, 1.0% BSA in saline, no insulin, fasted rats): 8.0 ± 0.4 mmol/L
effect on glycemia ([1]; deletion peptide alone, up to 100 μg/rat): without effect on glycemia
hypoglycemic effects ([1]; increasing doses of deletion peptide with 10 mU insulin): progressively greater degrees of hypoglycemic effects
effect on plasma glucose ([1]; lowest dose of deletion peptide given with a low dose of insulin in BSA): small significant decrease in plasma glucose
Plasma Glucose at 60 minutes ([2]; 100 μg DP in 1.0% BSA in saline, 0 mU insulin): 8.1 ± 0.2 mmol/L
Plasma Glucose at 60 minutes ([2]; 100 μg DP with insulin 7 mU per rat): 7.6 ± 0.1 mmol/L
Plasma Glucose at 60 minutes ([2]; 100 μg DP with insulin 10 mU per rat): 3.5 ± 0.1 mmol/L
Plasma Glucose at 60 minutes ([2]; 100 μg DP with insulin 20 mU per rat): 3.1 ± 0.1 mmol/L
Plasma Glucose at 60 minutes ([2]; 100 μg DP with insulin 40 mU per rat): 2.7 ± 0.1 mmol/L
hypoglycemia ([2]; deletion peptide in addition to 10 mU insulin): significant degree of hypoglycemia
potentiation of hypoglycemic effects of insulin ([2]; higher doses of insulin with 100 μg deletion peptide): potentiated
potentiation of the hypoglycemic activity of insulin [3]: potentiated the hypoglycemic activity of insulin
potentiation of insulin effects (Rhesus monkeys): potentiated insulin effects
hepatic glycogen synthesis (normal rats [4]; administered alone): small, insulin-like effects in increasing hepatic glycogen synthesis
effects of exogenous insulin (normal rats [4]; concurrently administered with exogenous insulin): substantially augmented the effects of exogenous insulin
hypoglycemic effect (normal rats [4]; deletion peptide alone, normal rats): no hypoglycemic effect
incorporation of labelled glucose into liver and skeletal muscle tissue [5]: caused an alteration in the incorporation of labelled glucose
growth stimulating effect (hypophysectomized rats): no growth stimulating effect
insulin-stimulated glucose uptake by isolated adipocytes [6]: no effect on insulin-stimulated glucose uptake
biological activities in in vivo systems [7]: preliminary evidence of insulin secretory stimulation effects, effects on levels of free fatty acids, and effects on glucose uptake by hepatic and muscle tissue
plasma and hepatic glucose output (normal dog): minor transient fall
glycemic effects (normal dog; over a period of two hours): no glycemic effects
late increases in free fatty acids and glycemic effects (normal rats [8]): did not show either the late increases in free fatty acids nor the glycemic effects
glucose tolerance [9]: unspecified degree of improvement in glucose tolerance
glucose utilization of insulin-stimulated fat cells [10]: in vitro increase in glucose utilization
